No end group written: not given here.
Experiments:
Format in all cases: cell-based
[1] = test system: Pseudomonas aeruginosa strain H1001 fliC::luxCDABE; experiment: Luminescence (lux) killing assay, peptides cleaved from cellulose support; parameters: key: − for minimal or no activity; + for weak activity; +/++ for intermediate activity; ++ strong activity; conditions: P. aeruginosa strain H1001, 4 hours incubation, luminescence as indicator
Protocol: Assay for the cleaved peptides from cellulose support. The peptides were cleaved from the dried membrane in an ammonia atmosphere overnight, resulting in free peptides with an amidated C-terminus. The free peptides contained two β-alanines at the C-terminus, in addition to being amidated due to the linker between the cellulose membrane and the peptide sequence. The peptide spots were punched out and transferred in a 96-well microtiter plate. Serial dilutions were carried out from the membrane spots. Four rows were filled with four controls including 2×Bac2A and 2× an unrelated peptide. The other eight rows were used for serial dilution steps of the peptide variants. An overnight culture of Pseudomonas aeruginosa strain H1001 was diluted 1:500 using either LB media or 100 mM Tris buffer pH 7.3, 20 mM glucose and was added to the wells (100 μl/well) containing the peptide spots. In all other wells 50 μl were added. The microtiter plate was incubated for 30 min at 37° C. to release the peptides from the membrane. Subsequently, a dilution series were performed and the plate was incubated at 37° C. The luminescence produced by the FMN dependent luciferase system were detected in a time dependent manner using a Tecan Spectra Fluor plus.
Strains. For the killing assay a mini-Tn5-lux mutant in Pseudomonas aeruginosa H103 was used. The strain is called H1001 and contains a fliC::luxCDABE transcriptional fusion resulting in constitutive expression of luciferase. The bacterial strains used for the antimicrobial activity assays included Escherichia coli UB1005 (F-, nalA37, metB1), a wild-type Salmonella enterica ssp. typhimurium (S. typhimurium), wild-type Pseudomonas aeruginosa PAO1 strain H103, Enterococcus faecalis ATCC29212, Staphylococcus aureus ATCC25923, and a clinical isolate of Staphylococcus epidermidis obtained from Dr. D. Speert (Department of Medicine, University of British Columbia). Antifungal activity was tested using a lab isolate of Candida albicans obtained from Dr. B. Dill (Department of Microbiology and Immunology, University of British Columbia).
Peptide synthesis on cellulose is a very effective and inexpensive way to investigate many different peptide variants for one particular activity. However, one of the problems of this technique is the low peptide amount synthesized on the membrane, about 280 nmol per cm^2. An average peptide spot used for the experiments presented is about 0.3 cm^2. Therefore, an assay had to be developed that was sensitive enough to show activity with this amount of peptides. P. aeruginosa H1001 has a luciferase gene cassette incorporated into the bacterial chromosome in a gene fliC (involved in flagellar biosynthesis) that is constitutively expressed. It will thus produce light if FMN is present. When this strain is killed, e.g. by peptides, the amount of light produced will decrease due to a decrease in FMN levels in the killed cells. This action can thus be monitored by detecting luminescence in a microtiter plate luminescence reader over time. The volume and amount of cells per well were optimized for this assay. After screening, we were able to monitor the killing action with small amounts of the parent peptide Bac2A (2 μg/ml of free peptide).

[2] = test system: MCP-1 release by human PBMC; experiment: Chemokine induction in PBMC (capture ELISA); conditions: background (204) subtracted
Protocol: FIG. 15. Induction of MCP-1 release by 7.5×10^5 human PBMC in response to treatment with 20 or 100 μg/ml of different peptides for 24 hours.
(§1) Venous blood (20 ml) from healthy volunteers was collected in Vacutainer® collection tubes containing sodium heparin as an anticoagulant (Becton Dickinson, Mississauga, ON) in accordance with UBC ethical approval and guidelines. Blood was diluted 1:1 with complete RPMI 1640 medium and separated by centrifugation over a Ficoll-Paque® Plus (Amersham Biosciences, Piscataway, N.J., USA) density gradient. White blood cells were isolated from the buffy coat, washed twice in RPMI 1640 complete medium, and the number of peripheral blood mononuclear cells (PBMC) was determined by trypan blue exclusion. PBMC (5×10^5) were seeded into 12-well tissue culture dishes (Falcon; Becton Dickinson) at 0.75 to 1×10^6 cells/ml at 37° C. in 5% CO2. The above conditions were chosen to mimic conditions for circulating blood monocytes entering tissues at the site of infection via extravasation.
(§2) Following incubation of the cells under various treatment regimens, the tissue culture supernatants were centrifuged at 1000×g for 5 min, then at 10,000×g for 2 min to obtain cell-free samples. Supernatants were aliquoted and then stored at −20° C. prior to assay for various chemokines by capture ELISA (eBioscience and BioSource International Inc., CA, USA respectively)

[3] = test system: MCP-3 release by human PBMC; experiment: Chemokine induction in PBMC (capture ELISA); conditions: background (6) subtracted
Protocol: FIG. 16. Induction of MCP3 release by 7.5×10^5 human PBMC in response to treatment with 20 or 100 μg/ml of different peptides for 24 hours.
as §1, §2

[4] = test system: CXCL1 (Gro-α) release by human PBMC; experiment: Chemokine induction in PBMC (capture ELISA); conditions: background (196) subtracted
Protocol: FIG. 17. Induction of CXCL1 (Gro-α) release by 7.5×10^5 human PBMC in response to treatment with 20 or 100 μg/ml of different peptides for 24 hours.
as §1, §2

Substance: KWRWWKKRR [HH986]
- Antimicrobial activity [1]: ++

Substance: KWRWWPWRR [HH978]
- Antimicrobial activity [1]: ++

Substance: KWWKWKK [HH1008]
- Antimicrobial activity [1]: +

Substance: KWWPWRR [HH994]
- Antimicrobial activity [1]: +

Substance: LVRAIQVRAVIR (LVRAIQVRAVIR-NH2) [compound 1001]
- Chemokine induction MCP-1 ([2]; 20 μg/ml peptide): 516 pg/mL
- Chemokine induction MCP-1 ([2]; 100 μg/ml peptide): 2491 pg/mL
- Chemokine induction MCP-3 ([3]; 20 μg/ml peptide): 0 pg/mL
- Chemokine induction MCP-3 ([3]; 100 μg/ml peptide): 40 pg/mL
- Chemokine induction Gro-α ([4]; 20 μg/ml peptide): 88 pg/mL
- Chemokine induction Gro-α ([4]; 100 μg/ml peptide): 850 pg/mL

Substance: PKWPWRR [HH997]
- Antimicrobial activity [1]: −

Substance: PWKPWRR [HH998]
- Antimicrobial activity [1]: −

Substance: PWWKWRR [HH995]
- Antimicrobial activity [1]: +/++

Substance: PWWKWRR [HH999]
- Antimicrobial activity [1]: +

Substance: PWWPKRR [HH1000]
- Antimicrobial activity [1]: −

Substance: PWWPWRK [HH1001]
- Antimicrobial activity [1]: −

Substance: PWWPWRR [HH993]
- Antimicrobial activity [1]: +

Substance: RFFKFRR [HH1007]
- Antimicrobial activity [1]: −

Substance: RFWKWRR [HH1004]
- Antimicrobial activity [1]: +

Substance: RWWIKRR [HH1005]
- Antimicrobial activity [1]: +/++

Substance: RWWIYRR [HH1006]
- Antimicrobial activity [1]: +

Substance: RWWKWRK [HH1003]
- Antimicrobial activity [1]: +/++

Substance: RWWKWRR [HH1002]
- Antimicrobial activity [1]: ++

Substance: VIWIRWR (VIWIRWR-NH2) [compound 1041]
- Chemokine induction MCP-1 ([2]; 20 μg/ml peptide): 146 pg/mL
- Chemokine induction MCP-1 ([2]; 100 μg/ml peptide): 1218 pg/mL
- Chemokine induction MCP-3 ([3]; 20 μg/ml peptide): 7 pg/mL
- Chemokine induction MCP-3 ([3]; 100 μg/ml peptide): 53 pg/mL
- Chemokine induction Gro-α ([4]; 20 μg/ml peptide): 110 pg/mL
- Chemokine induction Gro-α ([4]; 100 μg/ml peptide): 450 pg/mL

Substance: VQLRIWVRR (VQLRIWVRR-NH2) [compound 1006]
- Chemokine induction MCP-1 ([2]; 20 μg/ml peptide): 392 pg/mL
- Chemokine induction MCP-1 ([2]; 100 μg/ml peptide): 3004 pg/mL
- Chemokine induction MCP-3 ([3]; 20 μg/ml peptide): 0 pg/mL
- Chemokine induction MCP-3 ([3]; 100 μg/ml peptide): 58 pg/mL
- Chemokine induction Gro-α ([4]; 20 μg/ml peptide): 65 pg/mL
- Chemokine induction Gro-α ([4]; 100 μg/ml peptide): 1245 pg/mL

Substance: WIVIWRR (WIVIWRR-NH2) [compound 1043]
- Chemokine induction MCP-1 ([2]; 20 μg/ml peptide): 98 pg/mL
- Chemokine induction MCP-1 ([2]; 100 μg/ml peptide): 1998 pg/mL
- Chemokine induction MCP-3 ([3]; 20 μg/ml peptide): 0 pg/mL
- Chemokine induction MCP-3 ([3]; 100 μg/ml peptide): 21 pg/mL
- Chemokine induction Gro-α ([4]; 20 μg/ml peptide): 26 pg/mL
- Chemokine induction Gro-α ([4]; 100 μg/ml peptide): 881 pg/mL

Substance: WRWRVRVWR (WRWRVRVWR-NH2) [compound 1031]
- Chemokine induction MCP-1 ([2]; 20 μg/ml peptide): 875 pg/mL
- Chemokine induction MCP-1 ([2]; 100 μg/ml peptide): 552 pg/mL
- Chemokine induction MCP-3 ([3]; 20 μg/ml peptide): 9 pg/mL
- Chemokine induction MCP-3 ([3]; 100 μg/ml peptide): 9 pg/mL
- Chemokine induction Gro-α ([4]; 20 μg/ml peptide): 172 pg/mL
- Chemokine induction Gro-α ([4]; 100 μg/ml peptide): 112 pg/mL

Reference: patent US8343475B2, “Small cationic antimicrobial peptides” (priority 2006, dated 2013)
